Measurements as given in ChEMBL document CHEMBL5661955, “ASAP - In vitro cytotoxicity” (2024).
“And” between values parts separate entries of the source, which are not always exact repeats. Identical values can stand only once.

Tests used:
[1] = Functional assay to measure dose dependent changes in cell viability from drug treatment in Vero E6 miRFP670 cells (cotreated with P-gp inhibitor, CP100356) that are infected with Dengue virus type 2 New Guinea C. […] Cytotoxicity is reported via via analysis of DAPI count using high-content imager. The assay has been performed by KU Leuven.; format: toxicity, cell-based, Vero C1008; conditions: chlorocebus sabaeus, p-gp concentration 500 nM
[2] = Functional CPE-based assay to measure dose dependent changes in cell viability from drug treatment in Vero E6 miRFP670 cells (cotreated with P-gp inhibitor, CP100356). Cells are treated with antiviral candidates that have been serially diluted. Cytotoxicity is reported via analysis of MTS assays in uninfected cells. The assay has been performed by KU Leuven.; format: toxicity, Vero C1008; conditions: chlorocebus sabaeus, p-gp concentration 500 nM
[3] = with CP100356 (P-gp inhibitor, concentration not stated)
[4] = Vero E6 miRFP670 cells, with CP100356 (P-gp inhibitor, concentration not stated)

SMILES	CC50 [1, 3]	CC50 [2, 4]	CC50 ([1]; vero c1008)	CC50 ([2]; vero c1008)
CNC(=O)[C@H](Nc1ccc2c(c1)CNC2)c1cc(Cl)cc2[nH]ncc12	5.53 µM	> 50 µM		
O=C(Nc1ccc2c(n1)CNC2)c1cc(Cl)cc2[nH]ncc12	> 50 µM	> 50 µM		
CC(=O)Nc1cc(Br)cc(C(=O)Nc2ccc3c(c2)CNC3)c1	0.561 µM	> 50 µM		
CC(C)NC(=O)[C@H](Nc1ccc2c(c1)CNC2)c1cc(Cl)cc2[nH]c(-c3ccccc3)nc12			23.2 µM and 7.47 µM and 13.6 µM	5.66 µM and 9.23 µM and 13.7 µM
Cc1ncc(-c2cc(F)cc(C(=O)Nc3ccc4c(c3)CNC4)c2)o1	12.5 µM	11.9 µM		
O=C(Nc1cc2c(cc1Br)CNC2)c1cc(Cl)cc2[nH]ncc12	13.5 µM	1.85 µM		
O=C(Nc1ccc2c(c1)CNC2)c1cc(F)cc2[nH]c(-c3cnc(C4CC4)o3)nc12	1.86 µM		2.55 µM	3.86 µM and 1.41 µM
O=C(Nc1ccc2c(c1)CNC2)c1cc(F)cc(-c2cn[nH]c2)c1	37.2 µM	> 50 µM		
O=C(Nc1ccc2c(c1)CNC2)c1cccc2[nH]c(C(F)(F)F)cc12	> 50 µM	47.3 µM		
O=C(Nc1ccc2c(c1)CNC2)c1cc(Cl)cc2cn[nH]c12	5 µM	> 50 µM		
N#Cc1cccc(-c2nc3c(C(=O)Nc4ccc5c(c4)CNC5)cc(F)cc3[nH]2)c1	20.7 µM	29.2 µM		
O=C(Nc1ccc2c(c1)CNC2)c1cc(Cl)cc2[nH]c(-c3ccnn3C3CC3)nc12	11.7 µM	1.78 µM		
O=C(Nc1cc2c(c(-c3c[nH]c(=O)c(F)c3)c1)CNC2)c1cc(F)cc2[nH]ncc12	> 50 µM	> 50 µM		
O=C(Nc1ccc2c(c1)CNC2)c1cc(Br)cc2[nH]c(=O)[nH]c12	4.79 µM	> 50 µM		
CNC(=O)[C@H](Nc1ccc2c(c1)CNC2)c1cc(Cl)cc2[nH]c(-c3ccccc3)nc12	> 50 µM			9.01 µM and 21.4 µM
O=C(Nc1ccc2c(c1)CN[C@H]2C[C@H](O)CO)c1cc(F)cc2[nH]ncc12	31.2 µM	> 50 µM		
O=C(NCCCn1ccnc1)[C@H](Nc1ccc2c(c1)CNC2)c1cc(Cl)cc(C2CC2)c1	> 50 µM	11.5 µM		
O=C(Nc1ccc2c(c1)CNC2)c1cc(Cl)cc2[nH]c(-c3ccc(F)cc3O)nc12	1.64 µM	2.19 µM		
N#Cc1ccc(-c2nc3c(C(=O)Nc4ccc5c(c4)CNC5)cc(F)cc3[nH]2)cc1	> 50 µM	> 50 µM		
COc1cccc(-c2nc3c(C(=O)Nc4ccc5c(c4)CNC5)cc(F)cc3[nH]2)c1	5.1 µM	2.86 µM		
CO[C@H]1C[C@H](n2ncc3c(C(=O)Nc4ccc5c(c4)CNC5)cc(Cl)cc32)C1	47.5 µM	14 µM		
O=C(NCC(F)F)[C@H](Nc1ccc2c(c1)CNC2)c1cc(F)cc2[nH]ccc12	31.1 µM	> 50 µM		
Cn1cc2c(C(=O)Nc3ccc4c(c3)CNC4)cc(F)cc2n1	> 50 µM	> 50 µM		
C=CC[C@H]1NCc2cc(NC(=O)c3cc(Cl)cc4[nH]ncc34)ccc21	3.12 µM	11.8 µM		
Cc1nc2c(C(=O)Nc3ccc4c(c3)CNC4)cc(Cl)cc2[nH]1	6.02 µM	4.77 µM		
COc1ccccc1-c1nc2c(C(=O)Nc3ccc4c(c3)CNC4)cc(F)cc2[nH]1	15.6 µM	> 50 µM		
CCCn1cc2c(C(=O)Nc3ccc4c(c3)CNC4)cc(Cl)cc2n1	21.5 µM	17.4 µM		

SMILES	CC50 [1, 3]	CC50 [2, 4]	CC50 ([1]; vero c1008)	CC50 ([2]; vero c1008)
O=C(Nc1cc(Cl)cc(-c2ccc3[nH]c(C(=O)O)cc3c2)c1)OCc1ccccc1	27.1 µM	25.2 µM	14.3 µM	
O=C(NCCC1CC1)[C@H](Nc1ccc2c(c1)CNC2)c1cc(Cl)cc(C2CC2)c1	16.7 µM	11.8 µM		
NCc1cccc(-c2csc3cc(C(=O)Nc4ccc5c(c4)CNC5)ccc23)c1	3.57 µM	5.68 µM		
O=C(Nc1ccc2c(c1)CNC2)c1cc(F)cc2[nH]c(-c3cccc(F)c3)nc12	2.47 µM	3.69 µM		
N#Cc1cc2c(cc1NC(=O)c1cc(F)cc3[nH]ncc13)CNC2	> 50 µM	> 50 µM		
O=C(Nc1ccc2c(c1)CNC2)c1cc(F)cc(-c2cccnc2)c1	> 50 µM	15.4 µM		
O=C(Nc1ccc2c(c1)CNC2)c1cc(Cl)cc2cc[nH]c12	19.7 µM	5.91 µM		
Cc1cccc(-c2nc3c(C(=O)Nc4ccc5c(c4)CNC5)cc(F)cc3[nH]2)c1	0.838 µM	2.76 µM		
O=C(Nc1ccc2c(c1)CNC2)c1cccc2c1[C@]1(CCNC1)C(=O)N2	> 50 µM	> 50 µM		
Cc1ncc(-c2cc(F)cc(C(=O)Nc3ccc4c(c3)CNC4)c2)s1	> 50 µM	23.1 µM		
O=C(Nc1cc(Br)c2c(c1)CNC2)c1cc(F)cc2[nH]ncc12	> 50 µM	> 50 µM		
O=C(NCC(F)F)[C@H](Nc1ccc2c(c1)CNC2)c1cc(F)cc2[nH]ncc12	> 50 µM	> 50 µM		
O=C(Nc1ccc2c(c1)CNC2)c1cc(F)cc(-c2c[nH]c(=O)c(F)c2)c1	25.4 µM	> 50 µM		
N#CCc1cc(NC(=O)c2cc(F)cc3[nH]ncc23)cc2c1CNC2	> 50 µM	> 50 µM		
C=Cc1cc2c(cc1NC(=O)c1cc(F)cc3[nH]ncc13)CNC2	> 50 µM	> 50 µM		
O=C(Nc1ccc2c(c1)CNC2)c1ccc2c(C3=CCNCC3)csc2c1	18.8 µM	47.1 µM		
O=C(Nc1cc2c(cc1C1CC1)CNC2)c1cc(F)cc2[nH]ncc12	10.1 µM	> 50 µM		
Cc1ccc(-c2nc3c(C(=O)Nc4ccc5c(c4)CNC5)cc(F)cc3[nH]2)cc1	3 µM	1.42 µM		
O=C(NC1CCOCC1)[C@H](Nc1ccc2c(c1)CNC2)c1cc(Cl)cc2[nH]ncc12	> 50 µM	> 50 µM		
CC1=C(c2cc(NC(=O)c3cc(Cl)cc4[nH]ncc34)cc3c2CNC3)CCC1=O	> 50 µM	> 50 µM		
O=C(Nc1ccc2c(c1)CNC2)c1cc(Cl)cc2c1cnn2C[C@H]1CCCO1	37.1 µM	26.9 µM		
O=C(Nc1ccc2c(c1)CNC2)c1cc(F)c2[nH]ccc2c1	> 50 µM	48.1 µM		
Cn1c(=O)[nH]c2c(C(=O)Nc3ccc4c(c3)CNC4)cc(Br)cc21	> 50 µM	34.2 µM		
O=C(Nc1cc2c(c(C3=CC[C@H](O)CC3)c1)CNC2)c1cc(Cl)cc2[nH]ncc12	> 50 µM	> 50 µM		
O=C(Nc1ccc2c(c1)CNC2)c1cc(Cl)cc2[nH]c(-c3cc(C4CC4)[nH]n3)nc12	1.27 µM	1.51 µM		
O=C(Nc1ccc2c(c1)CNC2)c1cc(F)cc2c1CCC2	> 50 µM	33 µM		
Cc1cccc(-c2nc3c(C(=O)Nc4ccc5c(c4)CNC5)cc(Cl)cc3[nH]2)c1O	9 µM	3.03 µM	8.94 µM	3.17 µM

SMILES	CC50 [1, 3]	CC50 [2, 4]	CC50 ([1]; vero c1008)	CC50 ([2]; vero c1008)
O=C(Nc1ccc2c(c1)CNC2)c1cccc2[nH]c(=O)[nH]c12	33.3 µM	> 50 µM		
O=C(Nc1ccc2c(c1)CN[C@H]2CCO)c1cc(F)cc2[nH]ncc12	42.5 µM	> 50 µM		
C=CC[C@H]1NCc2cc(NC(=O)c3cc(F)cc4c3CC(=O)N4)ccc21	> 50 µM	> 50 µM		
Cc1cnccc1-c1cc(NC(=O)c2cc(F)cc3[nH]ncc23)cc2c1CNC2	> 50 µM	> 50 µM		
O=C(Nc1ccc2c(c1)CNC2)c1cc(F)cc2[nH]c(-c3ccc(F)cc3)nc12	4.33 µM	6.47 µM		
O=C(Nc1ccc2c(c1)CNC2)c1cccc2nc(O)ccc12	> 50 µM	36.5 µM		
CC(C)CNC(=O)[C@H](Nc1ccc2c(c1)CNC2)c1cc(Cl)cc2[nH]ncc12	17 µM	> 50 µM		
Cc1cc(-c2cc(F)cc(C(=O)Nc3ccc4c(c3)CNC4)c2)[nH]n1	> 50 µM	> 50 µM		
COc1cc(-c2cc(NC(=O)c3cc(F)cc4[nH]ncc34)cc3c2CNC3)ccn1	> 50 µM	> 50 µM		
CCOCCNC(=O)[C@H](Nc1ccc2c(c1)CNC2)c1cc(Cl)cc2[nH]ncc12	9.94 µM	> 50 µM		
CC(C)n1cc2c(C(=O)Nc3ccc4c(c3)CNC4)cc(Cl)cc2n1	22.7 µM	11.8 µM		
O=C1Cc2cc(C(=O)Nc3ccc4c(c3)CNC4)ccc2N1	> 50 µM			8.74 µM and > 50 µM
CCCNC(=O)[C@H](Nc1ccc2c(c1)CNC2)c1cc(Cl)cc2[nH]ncc12	12.9 µM	> 50 µM		
O=C(NCc1cccnc1)[C@H](Nc1ccc2c(c1)CNC2)c1cc(Cl)cc2[nH]ncc12	> 50 µM	8.32 µM		
N#Cc1cccc(-c2nc3c(C(=O)Nc4ccc5c(c4)CNC5)cc(Cl)cc3[nH]2)c1	> 50 µM	6.67 µM		
O=C(Nc1ccc2c(c1)CNC2)c1cccc2cn[nH]c12	> 50 µM	47.8 µM		
O=C(Nc1cc2c(cc1Br)CNC2)c1cc(F)cc2[nH]ncc12	> 50 µM	46.1 µM		
O=C(Nc1ccc2c(c1)CNC2)c1cc(F)cc(-c2cnc(C3CC3)s2)c1	16.4 µM	19.7 µM		
O=C(Nc1ccc2c(c1)CNC2)c1cc(Cl)cc2ccccc12	25.1 µM	10.1 µM		
O=C(Nc1cc2c(c(C3=CCS(=O)(=O)CC3)c1)CNC2)c1cc(F)cc2[nH]ncc12	> 50 µM	> 50 µM		
O=C(Nc1cc2c(c(-c3ccnnc3)c1)CNC2)c1cc(Cl)cc2[nH]ncc12	25.8 µM	> 50 µM		
O=C(Nc1ccc2c(c1)CNC2)c1cc(Cl)cc2c1cnn2C1CCC1	12.8 µM	9.91 µM		
O=C(Nc1ccc2c(c1)CNC2)c1cc(Cl)cc2c1NCCC2	24.8 µM	6.83 µM		
O=C(Nc1ccc2c(c1)CNC2)c1cc(Cl)cc(N2CCCC2)c1	13.2 µM	5.83 µM		
O=C(Nc1cc2c(c(C3=CCOCC3)c1)CNC2)c1cc(F)cc2[nH]ncc12	> 50 µM	> 50 µM		
